“Also recorded” adds a separate entry of the source.
How the values were obtained:
CT DNA = CT DNA binding by UV–Vis absorption spectroscopy; parameters: species or system calf; details: compound 40 µM, CT DNA 0 to 60 µM, Tris-HCl pH 7.4
Procedure: Absorption spectroscopy is a convenient and simple method for probing the binding of small molecules to DNA. The interaction of selected acridine–thiosemicarbazone derivatives with CT DNA was studied in the 220–500 nm region. Binding constants (Kb) were calculated from [DNA]/(Ɛa − Ɛf) versus [DNA], in which Kb is given by the ratio of slope to the intercept. […] For this, the regions chosen were the ones with the highest absorption intensity above 300 nm, due to the lower interference in DNA absorption in this region (ESI, Figures S50 and S53).
The concentration of the calf thymus, Type I, fibers (CT DNA), was determined based on the extinction coefficient of the absorbance at 260 nm (6600 L mol^−1 cm^−1). All compounds were dissolved in methanol (HPLC grade) at a concentration of 1 mmol L^−1 (stock solution). Working solutions were prepared by diluting the stock solution using Tris-HCl buffer (pH 7.4), with concentrations of 40 µmol L^−1. Under the optimized concentration, the compounds were titered with increasing concentrations of CT DNA (5 to 60 µmol L^−1). After shaking the system and incubating at room temperature for 10 min, the measurements were recorded using a JASCO J818 spectropolarimeter in the range of 220 to 500 nm at 298 K. The intrinsic bond constant (Kb) was obtained by adjusting the data according to the equation below:[DNA]/(Ɛa − Ɛf) = [DNA]/(Ɛb − Ɛf) + 1/[Kb (Ɛb − Ɛf)] where Ɛa, Ɛb and Ɛf are the apparent extinction coefficient of the compounds, the extinction coefficient of the compounds found in their […] and the extinction coefficient of the compounds when fully DNA-bound, respectively. The graph of [DNA]/(Ɛa − Ɛf) versus [DNA] was used to obtain the Kb from the ratio between the slope and the intercept, as previously described in the literature. Binding data were obtained using SigmaPlot 10.0 software. The study of possible DNA denaturation using methanol–water solutions was evaluated up to the maximum final concentration of methanol in the assays (6%) (ESI, Figures S50 and S53).

[1] = tested on: MRC-5 (human lung fibroblast); test: Alamar blue cytotoxicity assay, non-cancerous MRC-5; type: cell-based; details: MRC5, 72 h incubation, non-cancerous cell
Procedure: The in vitro cytotoxic activity of the compounds (Table 1) was evaluated against cancer cell lines HCT116 (human colon carcinoma), HepG2 (human hepatocellular carcinoma), B16F10 (murine melanoma carcinoma) and non-cancerous cell line MRC-5 (human lung fibroblast) using the Alamar blue assay after 72 h of incubation; doxorubicin (DOX) was used as a positive control. The unsubstituted derivatives on the acridine cores were encoded as CL, and the disubstituted derivatives as DL.
The human cancer cell lines HCT116 (colon carcinoma) and HepG2 (hepatocellular carcinoma), the mouse cancer cell line B16-F10 (melanoma), and the non-cancerous human cell line MRC-5 (lung fibroblast) were obtained from the American Type Culture Collection (ATCC, Manassas, VA, USA) and cultured according to the ATCC animal cell culture guide. All cell lines tested negative for mycoplasma using a mycoplasma stain kit.
Cell viability was measured using the Alamar blue assay, as previously described. Cells were seeded in 96-well plates for all experiments. The compounds were dissolved in dimethyl sulfoxide (DMSO, Sigma-Aldrich) and added to each well in eight serial concentrations ranging from 0.19 to 25 μg/mL. As a positive control, doxorubicin was used. After 72 h of treatment, 20 μL of resazurin (0.312 mg/mL) was added to each well. A SpectraMax 190 Micro-plate Reader was used to measure absorbances at 570 and 595 nm (Molecular Devices, Sunnyvale, CA, USA). Nonlinear regression with 95% confidence intervals (CI 95%) was used to calculate the inhibitory concentration of 50% (IC50) using GraphPad Prism software (Intuitive Software for Science; San Diego, CA, USA).

[2] = target: T1, recombinant human topoisomerase IIα (p170) (Homo sapiens, UniProt P11388); test: Human topoisomerase IIα inhibition assay (pUC19 plasmid relaxation); type: biochemical; details: for inhibition of Topo IIα enzymatic activity (in words) / % of enzyme inhibition: 100 µM; for % of enzyme inhibition / inhibition at 100 µM: densitometry, relative to positive control mAMSA, '-' = no inhibition; for inhibition at 100 µM: read-out: % of enzyme inhibition
T1 construct: purchased Sigma-Aldrich
T1 sequence (P11388 whole entry): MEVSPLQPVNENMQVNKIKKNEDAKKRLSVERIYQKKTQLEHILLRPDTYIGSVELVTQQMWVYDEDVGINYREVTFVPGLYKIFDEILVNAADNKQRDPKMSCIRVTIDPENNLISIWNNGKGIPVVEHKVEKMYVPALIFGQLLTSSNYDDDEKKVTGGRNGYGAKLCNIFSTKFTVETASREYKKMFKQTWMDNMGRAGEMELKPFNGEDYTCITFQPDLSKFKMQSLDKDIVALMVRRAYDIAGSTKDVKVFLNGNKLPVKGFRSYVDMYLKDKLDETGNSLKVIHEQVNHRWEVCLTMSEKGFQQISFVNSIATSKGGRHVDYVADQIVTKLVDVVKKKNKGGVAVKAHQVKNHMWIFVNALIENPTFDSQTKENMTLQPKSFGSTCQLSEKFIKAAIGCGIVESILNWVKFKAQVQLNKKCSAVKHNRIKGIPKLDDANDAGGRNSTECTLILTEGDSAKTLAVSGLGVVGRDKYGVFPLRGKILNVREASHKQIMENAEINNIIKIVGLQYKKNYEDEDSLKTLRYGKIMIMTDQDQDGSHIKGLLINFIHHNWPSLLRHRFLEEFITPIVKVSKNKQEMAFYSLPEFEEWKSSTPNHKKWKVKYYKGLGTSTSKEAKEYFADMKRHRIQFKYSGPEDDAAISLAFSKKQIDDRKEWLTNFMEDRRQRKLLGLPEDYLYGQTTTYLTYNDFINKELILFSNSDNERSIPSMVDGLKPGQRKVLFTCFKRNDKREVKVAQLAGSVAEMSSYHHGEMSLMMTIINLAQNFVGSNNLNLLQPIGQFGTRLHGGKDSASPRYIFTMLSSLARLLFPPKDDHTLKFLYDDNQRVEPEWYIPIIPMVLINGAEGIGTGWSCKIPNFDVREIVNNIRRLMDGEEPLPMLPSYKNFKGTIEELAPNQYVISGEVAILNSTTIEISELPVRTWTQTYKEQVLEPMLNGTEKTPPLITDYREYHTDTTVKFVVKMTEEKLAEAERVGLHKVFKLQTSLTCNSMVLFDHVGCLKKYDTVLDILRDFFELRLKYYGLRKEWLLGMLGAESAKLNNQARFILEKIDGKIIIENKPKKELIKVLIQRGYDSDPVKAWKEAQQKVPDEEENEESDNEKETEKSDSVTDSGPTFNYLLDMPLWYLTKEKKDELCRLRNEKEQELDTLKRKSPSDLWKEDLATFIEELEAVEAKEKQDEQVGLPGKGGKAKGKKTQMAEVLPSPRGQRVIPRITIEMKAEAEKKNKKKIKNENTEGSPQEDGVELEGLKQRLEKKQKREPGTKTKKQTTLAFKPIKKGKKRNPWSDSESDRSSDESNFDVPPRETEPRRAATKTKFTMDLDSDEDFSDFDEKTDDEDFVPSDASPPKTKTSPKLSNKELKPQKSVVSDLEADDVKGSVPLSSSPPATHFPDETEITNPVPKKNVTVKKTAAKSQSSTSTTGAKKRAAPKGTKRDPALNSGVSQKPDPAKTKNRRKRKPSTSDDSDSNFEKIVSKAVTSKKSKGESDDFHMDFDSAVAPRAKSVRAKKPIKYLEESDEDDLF
Text: Several studies have shown the ability of acridines to inhibit topoisomerases, being considered the main mechanism responsible for the antiproliferative activities of this scaffold. The possibility of the new acridine derivatives to inhibit Topo IIα in its biological function of DNA double-strand relaxation was investigated in this work. This enzymatic inhibition can be accompanied by the presence of a supercoiled or relaxed DNA band, performed with the pUC19 plasmid, as shown in Figure 2. In this study, mAMSA was used as a positive inhibition control.
For testing the ability of Topo IIα inhibition, the compounds were evaluated in the DNA plasmid relaxation assay. This test consists of evaluating the Topo IIα enzyme activity in the absence and presence of the compound, followed by electrophoresis analysis, as previously described by Almeida et al. (2016). Briefly, 100 ng pUC19 DNA plasmid (Sigma-Aldrich) and 4.0 units of recombinant human (p170) topoisomerase II (Sigma-Aldrich) in relaxation buffer without or with tested compounds were incubated for 30 min at 37 °C. The tested concentrations were […], and amsacrine (mAMSA) was used as a positive control. Reactions were terminated with 1% SDS and digested with proteinase K. Then, the reaction products were analyzed by electrophoresis gel stained with ethidium bromide and photographed under UV light. Quantitative evaluation (% of enzyme inhibition by compounds about the positive control mAMSA) of the gel bands corresponding to supercoiled DNA was performed by densitometry using image-processing software (Scion Image, version Beta 4.0.2.) according to Gouveia et al. (2018).
Figure 2 Effects of mAMSA and its acridine derivatives on topoisomerase IIα activity. Effects of derivatives and positive control on the inhibition of human topoisomerase IIα. Native supercoiled pUC19 was incubated for 30 min at 37 °C with […] of human Topo IIα in the absence (lane 2) or presence of ligands at a concentration 100 μM. Inhibition of Topo IIα-induced DNA relaxation by mAMSA (lane 3) was used as a positive control. DNA samples were run on an agarose gel followed by ethidium bromide staining.

| Structure (SMILES) | Hypochromic (%) (CT DNA) | IC50 [1] [µM] | inhibition of Topo IIα enzymatic activity (in words) [2] | % of enzyme inhibition [2] [%] | inhibition at 100 µM [2] [%] |
| --- | --- | --- | --- | --- | --- |
| Oc1ccc(/C=N/NC(=S)Nc2c3ccccc3nc3ccccc23)cc1 [CL-07, (E)-N-(acridin-9-yl)-2-(4-hydroxybenzylidene)hydrazine-1-carbothioamide] | 25.52 | 43.4 | did not show inhibition capacity; also recorded: could not inhibit Topo IIα |  |  |
| COc1ccc2nc3cc(Cl)ccc3c(NC(=S)N/N=C/c3ccccc3)c2c1 [DL-01, (E)-2-benzylidene-N-(6-chloro-2-methoxyacridin-9-yl)hydrazine-1-carbothioamide] | 12.89 | 37 | able to inhibit the enzymatic activity | 77 | > 74 |
| COc1ccc2nc3cc(Cl)ccc3c(NC(=S)N/N=C/c3cccc(O)c3)c2c1 [DL-08, (E)-N-(6-chloro-2-methoxyacridin-9-yl)-2-(3-hydroxybenzylidene)hydrazine-1-carbothioamide] | 14.79 | 14.4 | able to inhibit the enzymatic activity | 79 | > 74 |

Source: publication PMC9506480, “Synthesis and Evaluation of Antiproliferative Activity, Topoisomerase IIα Inhibition, DNA Binding and Non-Clinical Toxicity of New Acridine–Thiosemicarbazone Derivatives” (Pharmaceuticals, 2022)
